Test results taken from patent US20090305995A1, “AGONISTS AND ANTAGONISTS OF THE SOMATOSTATIN RECEPTOR” (Novartis AG, priority 2004, published 2009).
Values after ≈ are worked out from the molar mass of the structure shown. Where two headings read alike, the source gives them in different places.

Legend:
Type in all cases: physicochemical
[1] = high throughput solubility (HT-Solubility); conditions: for water solubility (in words): see FIG. 10
[2] = high throughput permeability (HT-Permeability, log Pe); conditions: PAMPA, Pe in cm/s
[3] = HT-logP o/w, high throughput assay based on artificial liquid membrane permeability
Description: To be absorbed and transported by passive diffusion, drugs must be sufficiently lipophilic to penetrate the lipid cores of membranes, but not too lipophilic that they get retained and accumulated there. The lipophilictity of a compound is expressed by the octanol/water partition coefficient or distribution coefficient. A first approximation of substance polarity can either be given by computer assisted calculations giving Clog P values or by measurement of the partition coefficients in high-throughput assays (HT-log P o/w) (Faller et al., 2004; Wohnsland et al., 2001).
Octanol/water partition coefficients are measured in a high throughput assay based on artificial liquid membrane permeability. […] Still many approaches to calculate log P values are limited due to a lack of parameterization of certain fragments and fail with increasing molecular weight which implicates higher structural complexity. Similar problems and failures are observed in chromatographic determinations of log P: Peptides might undergo structural changes driven by interactions with the stationary phase. Decisive interactions between the stationary phase and the defolded analytes are therefore also based on the linear peptide sequence. For this reason measured HT-log P o/w values based on chromatographic assays employing stationary phases may lead to erroneous results.

[4] = pH 1, pH 1.0, read-out: HT-Solubility pH 1.0
[5] = pH 6.8, pH 6.8, read-out: HT-Solubility pH 6.8
[6] = pH 4, pH 4.0, read-out: HT-Permeability logPe pH 4.0 (converted)
[7] = pH 6.8, pH 6.8, read-out: HT-Permeability logPe pH 6.8 (converted)
[8] = pH 8, pH 8.0, read-out: HT-Permeability logPe pH 8.0 (converted)
[9] = octanol/water, read-out: HT LogP ohw

Structure (SMILES)	solubility [1, 4] [µg/mL]	solubility [1, 5] [µg/mL]	water solubility (in words) [1]	Papp [2, 6] [×10⁻⁶ cm/s]	Papp [2, 7] [×10⁻⁶ cm/s]	Papp [2, 8] [×10⁻⁶ cm/s]	logP [3, 9]	solubility ([1]; pH 1.0, read-out: HT-Solubility pH 1.0) [µg/mL]	solubility ([1]; pH 6.8, read-out: HT-Solubility pH 6.8) [µg/mL]	Papp ([2]; pH 4.0, read-out: HT-Permeability logPe pH 4.0 (converted)) [×10⁻⁶ cm/s]	logP ([3]; octanol/water; read-out: HT LogP ohw)	HT-Solubility pH 1.0 ([1]; pH 1.0) [g 1-1]	HT-Solubility pH 6.8 ([1]; pH 6.8) [g 1-1]	HT LogP ohw ([3]; octanol/water)
CCCCN(C)C(=O)C[C@H](CCCCN)NC(=O)[C@@H](Cc1c[nH]c2ccccc12)NC(=O)C[C@H](Cc1ccccc1)NC(=O)CC [Compound 43, Propionyl-(S)-β^3-HPhe-(R)-Trp-(S)-β^3-HLys-methyl-butyl-amide]	127 (≈ 200 µM)	126 (≈ 200 µM)	highest solubility values	1	2	1.26	3							
C[C@H]1OC(=O)C[C@H]1NC(=O)C[C@H](CCCCN)NC(=O)[C@@H](Cc1c[nH]c2ccccc12)NC(=O)C[C@H](Cc1ccccc1)NC(=O)CCc1ccccc1 [Compound 10, Dihydrocinnemoyl-(S)-β^3-HPhe-(R)-Trp-(S)-β^3-HLys-(R)-4-amino-(R)-5-methyl-dihydro-furan-2-one]	36.8 (≈ 49.9 µM)	7.4 (≈ 10 µM)		0.1			2.7							
CC(=O)N(C)[C@H](CC(=O)N[C@H](Cc1c[nH]c2ccccc12)C(=O)N[C@@H](CCCCN)CC(=O)N[C@@H]1CC(=O)O[C@@H]1C)Cc1ccccc1 [Compound 39, Ac—N-Me-(S)-β^3-HPhe-(R)-Trp-(S)-β^3-HLys-(R)-4-amino-(R)-5-methyl-dihydro-furan-2-one]	132 (≈ 200 µM)	132 (≈ 200 µM)		5.01	2	3.16	3.4							
C[C@H]1OC(=O)C[C@H]1NC(=O)C[C@H](CCCCN)NC(=O)[C@@H](Cc1c[nH]c2ccccc12)NC(=O)C[C@H](Cc1ccccc1)NC(=O)C12CC3CC(CC(C3)C1)C2 [Compound 13, Adamantoyl-(S)-β^3-HPhe-(R)-Trp-(S)-β^3-HLys-(R)-4-amino-(R)-5-methyl-dihydro-furan-2-one]	153 (≈ 200 µM)	76.7 (≈ 100 µM)	good water solubility	3.16		10	2.8							
C[C@@H](O)[C@@H](CC(N)=O)NC(=O)C[C@H](CCCCN)NC(=O)[C@@H](Cc1c[nH]c2ccccc12)NC(=O)C[C@H](Cc1ccccc1)NC(=O)c1ccccc1 [Compound 14, Benzoyl-(S)-β^3-HPhe-(R)-Trp-(S)-β^3-HLys-(R), (R)—HThr-NH2]								145 (≈ 200 µM)	14.5 (≈ 20 µM)	0.1	2.6			
CC(=O)N[C@H](CC(=O)N[C@H](Cc1c[nH]c2ccccc12)C(=O)N[C@@H](CCCCN)CC(=O)NC1CCCC1)Cc1ccccc1 [Compound 31, Ac—(S)-β^3-HPhe-(R)-Trp-(S)-β^3-HLys-cyclopentyl-amide]	123 (≈ 200 µM)	123 (≈ 200 µM)		2.51	2	1	2.8							
CCCCCCCCC(=O)N[C@H](CC(=O)N[C@H](Cc1c[nH]c2ccccc12)C(=O)N[C@@H](CCCCN)CC(=O)N[C@H](CC(N)=O)[C@@H](C)O)Cc1ccccc1 [Compound 17, Nonanoyl-(S)-β^3-HPhe-(R)-Trp-(S)-β^3-HLys-(R), (R)—HThr-NH2]	15.2 (≈ 19.9 µM)	15.2 (≈ 19.9 µM)		12.6	2.51		4.2							
CCN(CC)C(=O)C[C@@H](NC(=O)C[C@H](CCCCN)NC(=O)[C@@H](Cc1c[nH]c2ccccc12)NC(=O)C[C@H](Cc1ccccc1)NC(=O)CCc1ccccc1)C(C)C [Compound 24, Dihydrocinnemoyl-(S)-β^3-HPhe-(R)-Trp-(S)-β^3-HLys-(R)-β^3-Leu-diethyl-amide]	16.2 (≈ 20 µM)	16.2 (≈ 20 µM)		0.1			4.1							
CCCC(=O)N[C@H](CC(=O)N[C@H](Cc1c[nH]c2ccccc12)C(=O)N[C@@H](CCCCN)CC(=O)NC1CCCC1)Cc1ccccc1 [Compound 56, Butyroyl-(S)-β^3-HPhe-(R)-Trp-(S)-β^3-HLys-cyclopentyl-amide]	129 (≈ 200 µM)	12.9 (≈ 20 µM)		0.1			3							
CCCCCN(C)C(=O)C[C@H](CCCCN)NC(=O)[C@@H](Cc1c[nH]c2ccccc12)NC(=O)C[C@H](Cc1ccccc1)NC(C)=O [Compound 47, Ace-(S)-β^3-HPhe-(R)-Trp-(S)-β^3-HLys-methyl-pentyl-amide]	127 (≈ 200 µM)	127 (≈ 200 µM)	highest solubility values	3.98	1.58	1	3							
CC(=O)N[C@H](CC(=O)N(C)[C@H](Cc1cn(C)c2ccccc12)C(=O)N[C@@H](CCCCN)CC(=O)N[C@@H]1CC(=O)O[C@@H]1C)Cc1ccccc1 [Compound 37, Ac—(S)-β^3-HPhe-(R)—N-Me-1-Me-Trp-(S)-β^3-HLys-(R)-4-amino-(R)-5-methyl-dihydro-furan-2-one]	135 (≈ 200 µM)	67.5 (≈ 100 µM)		6.31	5.01		2.4							
CN[C@H](CC(=O)N[C@H](Cc1c[nH]c2ccccc12)C(=O)N[C@@H](CCCCN)CC(=O)N[C@@H]1CC(=O)O[C@@H]1C)Cc1ccccc1 [Compound 38, N-Me-(S)-β^3-HPhe-(R)-Trp-(S)-β^3-HLys-(R)-4-amino-(R)-5-methyl-dihydro-furan-2-one]	124 (≈ 200 µM)	30.9 (≈ 49.9 µM)		0.1			3.2							
CCCCCNC(=O)C[C@H](CCCCN)NC(=O)[C@@H](Cc1c[nH]c2ccccc12)NC(=O)C[C@H](Cc1ccccc1)NC(=O)CC [Compound 51, Propionyl-(S)-β^3-HPhe-(R)-Trp-(S)-β^3-HLys-pentyl-amide]			medium to good			3.98						0.1266	0.0316	3.4
C[C@@H](O)[C@@H](CC(N)=O)NC(=O)C[C@H](CCCCN)NC(=O)[C@@H](Cc1c[nH]c2ccccc12)NC(=O)C[C@H](Cc1ccccc1)NC(=O)CCc1ccccc1 [Compound 15, Dihydrocinnemoyl-(S)-β^3-HPhe-(R)-Trp-(S)-β^3-HLys-(R), (R)—HThr-NH2]	37.7 (≈ 50 µM)	15.1 (≈ 20 µM)		3.98	6.31	12.6	2.7							
C[C@H]1OC(=O)C[C@H]1NC(=O)C[C@H](CCCCN)NC(=O)[C@@H](Cc1c[nH]c2ccccc12)NC(=O)C[C@@H](N)Cc1ccccc1 [Compound 28, (S)-β^3-HPhe-(R)-Trp-(S)-β^3-HLys-(R)-4-amino-(R)-5-methyl-dihydro-furan-2-one]	60.5 (≈ 100 µM)	60.5 (≈ 100 µM)				3.16	3.5							
NCCCC[C@@H](CC(=O)NC1CCCC1)NC(=O)[C@@H](Cc1c[nH]c2ccccc12)NC(=O)C[C@H](Cc1ccccc1)NC(=O)C12CC3CC(CC(C3)C1)C2 [Compound 34, Adamantoyl-(S)-β^3-HPhe-(R)-Trp-(S)-β^3-HLys-cyclopentyl-amide]	147 (≈ 200 µM)	73.7 (≈ 100 µM)		5.01	6.31	1.26	5.2							
CC(=O)N[C@H](CC(=O)N(C)[C@H](Cc1c[nH]c2ccccc12)C(=O)N[C@@H](CCCCN)CC(=O)N[C@@H]1CC(=O)O[C@@H]1C)Cc1ccccc1 [Compound 40, Ac—(S)-β^3-HPhe-(R)—N-Me-Trp-(S)-β^3-HLys-(R)-4-amino-(R)-5-methyl-dihydro-furan-2-one]	66.1 (≈ 100 µM)	13.2 (≈ 20 µM)		0.1			3.3							
